51 compounds from PubChem BioAssay AID1996 can be followed below.

Structures are written as SMILES. In brackets after ≈: the same amount, converted by molar mass.

For this series the following is noted: buffer; pH 7.4; 200.0 µM.
Compound `CN(C)C(=O)c1coc2nc3ccccc3nc12` came in with a solubility (kinetic) of 4 µg/mL (≈ 16.6 µM).

In turn, `O=C(NC1CCCN(Cc2ccccc2F)C1)C1CCC1` (stereo unspecified) gave a solubility (kinetic) of over 43.6 µg/mL.

On to `COCCCNc1nc(-c2ccc(Cl)cc2)nc2ccccc12`, for which the kinetic solubility amounted to 4.3 µg/mL (≈ 13.1 µM).

Compound `CCCc1cc(=O)[nH]c(SCC(=O)c2cc(C)n(CC3CCCO3)c2C)n1` (stereo unspecified) gave a solubility (kinetic) of over 58.4 µg/mL.

Take `O=C(Nc1cccc2ccccc12)N1CCN(c2ncccn2)CC1`: the kinetic solubility was over 50 µg/mL.

As for `Cn1c(=O)[nH]c(=O)c2c1nc(N1CCCC1)n2CCO`, the solubility (kinetic) is over 41.9 µg/mL.

For `COc1ccccc1NC(=O)COc1ccc2c(c1)OCO2`, the solubility (kinetic) stood at 2.5 µg/mL (≈ 8.3 µM).

For the compound `O=C(N/N=C/c1ccccc1C(F)(F)F)c1ccc(O)cc1`, the solubility (kinetic) is over 46.2 µg/mL.

The compound `CN(C)C(=S)c1ccccc1` displayed a solubility (kinetic) of 21.4 µg/mL (≈ 129 µM).

In the case of `CC(OC(=O)c1ccccn1)C(=O)Nc1nc(-c2ccc(F)c(F)c2)cs1` (stereo unspecified), the solubility (kinetic) was 7.9 µg/mL (≈ 20.3 µM).

Compound `O=C(Nc1ccccc1C(=O)Nc1ccccc1)c1ccccc1Br` came in with a solubility (kinetic) of 0.7 µg/mL (≈ 1.77 µM).

Regarding `Cc1ccc(N2C(=O)CN=C2Nc2nc(C)cc(C)n2)cc1`, the kinetic solubility is over 44.3 µg/mL.

Turning to `COCC(C)NC(=O)c1cc2cccc([N+](=O)[O-])c2[nH]1` (stereo unspecified), the kinetic solubility was over 41.6 µg/mL.

For `O=C(O)Cn1c(=O)c(-c2ccccc2)nc2ccccc21`, the kinetic solubility is over 42 µg/mL.

Take `CN1CCCN(C(=O)COc2cccc(C(F)(F)F)c2)CC1`: the kinetic solubility is over 47.4 µg/mL.

`CN(Cc1ccccc1)S(=O)(=O)c1ccc(Cl)c(C(=O)OCC(=O)NC2CCS(=O)(=O)C2)c1` (stereo unspecified) came in with a solubility (kinetic) of 18 µg/mL (≈ 35 µM).

`COc1cc(NC(=S)Nc2ccc(OC(F)F)cc2)cc(OC)c1` had a solubility (kinetic) of 23.9 µg/mL (≈ 67.4 µM).

As for `Cc1nc2ccccc2c(=O)n1-c1ccc(Cl)cc1[N+](=O)[O-]`, the solubility (kinetic) stood at 7.2 µg/mL (≈ 22.8 µM).

For `COc1cc(NC(=S)N2CCN(C)CC2)cc(OC)c1`, the kinetic solubility is over 44.3 µg/mL.

Compound `COC(=O)c1ccc(C2NCCc3cc(OC)c(OC)cc32)cc1` (stereo unspecified) displayed a solubility (kinetic) of over 49.1 µg/mL.

The compound `O=S(=O)(NCC1CCCO1)c1ccccc1F` (stereo unspecified) gave a kinetic solubility of over 38.9 µg/mL.

In turn, `Cc1ccc2nsnc2c1NC(=O)c1cncc(Br)c1` registered a solubility (kinetic) of 16.3 µg/mL (≈ 46.7 µM).

`COc1ccccc1-n1c(C)c(C(C)=O)c2cc(O)ccc21` had a solubility (kinetic) of 3 µg/mL (≈ 10.2 µM).

As to `CN1CCN(Cc2ccc3ccccc3c2)CC1`, the solubility (kinetic) is 20.6 µg/mL (≈ 85.7 µM).

Compound `Cc1cc(C(F)(F)F)nn1CC(=O)N(C)c1ccccc1` had a solubility (kinetic) of over 44.6 µg/mL.

Take `O=C(NC1CC1)C(=O)c1c[nH]c2ccccc12`: the kinetic solubility is over 34.2 µg/mL.

Take `Cc1cc(Cl)c2ccc(Cl)cc2n1`: the solubility (kinetic) is under 0.5 µg/mL.

In turn, `Cc1cc(C)cc(OCC(=O)Nc2cc(C)on2)c1` gave a kinetic solubility of 1.5 µg/mL (≈ 5.76 µM).

With `Nc1ccc(CCc2ccc(N)cc2)cc1`, the solubility (kinetic) came out at 22 µg/mL (≈ 104 µM).

For `O=C1CN=C(c2ccccc2)c2c(sc3c2CCCC3)N1`, the solubility (kinetic) was 36.3 µg/mL (≈ 122 µM). This solubility kinetic is about 1.6-fold higher than that of the compound before.

For `Cl.OC12CC3C[C@H](C1)C(N1CCOCC1)[C@@H](C3)C2` (stereo partly specified), the solubility (kinetic) amounted to 36.8 µg/mL. This solubility kinetic and that of the compound before are within 1.5-fold of each other.

In turn, `Cc1nc(N2CCOCC2)c2c3c(sc2n1)CCC3` returned a solubility (kinetic) of 34.4 µg/mL (≈ 125 µM).

In turn, `CN(C)C(=O)c1cc(C(=O)c2ccccc2Br)c[nH]1` came in with a kinetic solubility of 44.4 µg/mL (≈ 138 µM).

The compound `O=C(c1ccc(Oc2cc(Cl)cc(Cl)c2)o1)N1CCCCC1` registered a kinetic solubility of 7.7 µg/mL (≈ 22.6 µM).

In turn, `O=[N+]([O-])c1cccc(P(=O)(O)c2cccc([N+](=O)[O-])c2)c1` displayed a kinetic solubility of over 46.2 µg/mL.

With `C=CCN(Cc1nc(-c2ccccc2)no1)C(=O)c1ccc2c(c1)OCO2`, the solubility (kinetic) stood at 21.1 µg/mL (≈ 58.1 µM).

The compound `Cc1cccn2c(=O)nc(SCC(=O)NCc3ccco3)nc12` yielded a solubility (kinetic) of over 49.6 µg/mL.

For the compound `C#CCn1c2ccccc2c2nc3ccccc3nc21`, the solubility (kinetic) was under 0.2 µg/mL.

For `COc1ccc(S(=O)(=O)N2CCCCC2)cc1NC(=O)CCNC(=O)c1ccc(Cl)cc1`, the solubility (kinetic) came out at 4.3 µg/mL (≈ 8.96 µM).

`Nc1ccc(Cl)c(S(=O)(=O)Nc2ccc(Cl)cc2)c1`: the solubility (kinetic) stood at 43.4 µg/mL (≈ 137 µM).

Consider `N/C(=N\OC(=O)COc1ccccc1)c1ccncc1`, for which the kinetic solubility was over 40.7 µg/mL.

In the case of `NC(N)=NC1=NC(=O)C(Cc2ccccc2)S1` (stereo unspecified), the solubility (kinetic) is over 37.2 µg/mL.

Compound `O=C1OC(C(=O)NCc2ccccc2)Cc2ccccc21` (stereo unspecified) registered a solubility (kinetic) of 39 µg/mL (≈ 139 µM).

Compound `CCOC(=O)N1CCN(c2cc(=O)n(C)c(=O)n2C)CC1` showed a solubility (kinetic) of over 44.4 µg/mL.

Compound `COc1cc(/C=C/C(=O)Nc2ccc(OC)c(S(=O)(=O)N3CCOCC3)c2)ccc1OC(F)F` gave a solubility (kinetic) of 2.6 µg/mL (≈ 5.22 µM).

`O=C(CNC(=O)c1ccc(Cl)cc1)NC1CCCCC1` showed a kinetic solubility of 6.6 µg/mL (≈ 22.4 µM).

`Cc1cccc(C)c1N1CCN(S(=O)(=O)c2ccccc2)CC1` returned a kinetic solubility of under 0.4 µg/mL.

On to `CCOC(=O)CN1C(=O)C(=O)N(Cc2ccccc2F)C1=O`, for which the kinetic solubility is over 46.2 µg/mL.

The compound `Cc1ncc([N+](=O)[O-])n1CCO` came in with a solubility (kinetic) of over 25.7 µg/mL.

In turn, `O=C(Nc1ccc2c(c1)CCC2)c1ccc(Cl)nc1` showed a kinetic solubility of 7.8 µg/mL (≈ 28.6 µM).

Consider `COC(=O)C(Cc1ccc(O)cc1)NC(=O)CCNC(=O)c1ccco1` (stereo unspecified), for which the kinetic solubility is over 54.1 µg/mL.
